We go through eleven compounds from paper PMC12567244, “Innovative Amino-Functionalization of Pyrido[2,3-d]pyrimidine Scaffolds for Broad Therapeutic Applications Supported by Computational Analyses” (Pharmaceuticals, 2025).

A short description of data set [1]: in vitro. To be noted: human, WI-38 normal lung fibroblast cells.
For data set [2], the system named is cervical carcinoma (HeLa). Put plainly: MTT cytotoxicity assay, HeLa. The settings on record: for SI HeLa: IC50 WI-38 / IC50 HeLa; for IC50: read-out: IC50 HeLa, MTT, mean ± SD of three measurements. (In general: Tetrazolium assays rely on reduction of a dye to a coloured formazan, in cell work by metabolically active cells.)
For data set [3], the system named is breast carcinoma (MCF-7). Put plainly: MTT cytotoxicity assay, MCF-7. The settings on record: for SI MCF-7: IC50 WI-38 / IC50 MCF-7; for IC50: read-out: IC50 MCF-7, MTT, mean ± SD of three measurements.
Data set [4] concerns liver carcinoma (HepG-2). Put plainly: MTT cytotoxicity assay, HepG-2. The settings on record: for SI HepG-2: IC50 WI-38 / IC50 HepG-2; for IC50: read-out: IC50 HepG-2, MTT, mean ± SD of three measurements.
The subject of data set [5] is HeLa, HepG-2, and MCF-7. Put plainly: MTT cytotoxicity, range over the cancer cell panel. To be noted: read-out: IC50 across HeLa, HepG-2 and MCF-7; range over all examined cancer cell lines.
Data set [6] relates to P. aeruginosa ATCC10145. Put plainly: Well diffusion inhibition zone, P. aeruginosa. The settings on record: Pseudomonas aeruginosa, ATCC10145, read-out: Inhibition zone P. aeruginosa ATCC10145. Background: Agar diffusion results depend on both activity and mobility in agar.
Data set [7] concerns E.coli ATCC25915. Put plainly: Well diffusion inhibition zone, E. coli. The settings on record: Escherichia coli, ATCC25915, read-out: Inhibition zone E.coli ATCC25915.

By IC50 is commonly meant the concentration needed to halve the response being measured.

“And” between values parts separate entries of the source, which are not always exact repeats. Identical values can stand only once.

On to `Cn1c(=O)c2c(-c3ccc(Cl)cc3)c(C(=O)Nc3n[nH]cc3NN)c(N)nc2n(C)c1=O` [Compound 3, 7-Amino-5-(4-chlorophenyl)-N-(4-hydrazinyl-1H-pyrazol-3-yl)-1,3-dimethyl-2,4-dioxo-1,2,3,4-tetrahydropyrido[2,3-d]pyrimidine-6-carboxamide], for which, in data set [1], the midpoint of inhibition, the IC50 at 48 h, lay at 52.8 ± 2.9 µM. Moreover, in data set [2], the “SI HeLa” value stood at 3.73 and the IC50 is 14.1 ± 1.2 µM. Moreover, in data set [3], the “SI MCF-7” value was determined as 2.70 and the IC50 turned out to be 19.5 ± 1.3 µM. For the same compound, in data set [4], the “SI HepG-2” value is recorded as 2.46 and the IC50 amounted to 21.4 ± 1.5 µM. Also, the IC50 in data set [5] was in the range of 14 to 26 µM.
For `Cn1c(=O)c2c(-c3ccc(Cl)cc3)c(-c3nnc(S)n3N)c(N)nc2n(C)c1=O` [Compound 4, 7-Amino-6-(4-amino-5-mercapto-4H-1,2,4-triazol-3-yl)-5-(4-chlorophenyl)-1,3-dimethylpyrido[2,3-d]pyrimidine-2,4(1H,3H)-dione], the IC50 at 48 h in data set [1] came to 46.1 ± 2.7 µM. In data set [2], the “SI HeLa” value is 2.43 and the IC50 is 18.9 ± 1.4 µM. Besides, in data set [3], the “SI MCF-7” value was 1.76 and the IC50 came to 26.1 ± 1.7 µM. Moreover, in data set [4], the “SI HepG-2” value was determined as 1.99 and the IC50 was found to be 23.1 ± 1.6 µM. Besides, the zone of inhibition at 100 µg/mL in data set [6] was found to be 6 mm. Moreover, the IC50 in data set [5] is 14 to 26 µM.
`Cn1c(=O)c2c(-c3ccc(Cl)cc3)c(C(=O)NC(=S)NN)c(N)nc2n(C)c1=O` [Compound 5, 7-Amino-5-(4-chlorophenyl)-N-(hydrazinecarbonothioyl)-1,3-dimethyl-2,4-dioxo-1,2,3,4-tetrahydropyrido[2,3-d]pyrimidine-6-carboxamide] showed an IC50 at 48 h in data set [1] of 35.2 ± 2.2 µM. Besides, in data set [2], the “SI HeLa” value was 0.39. In addition, the IC50 in data set [2] is 89.4 ± 4.6 µM; in data set [3], 84.1 ± 4.2 µM; in data set [4], above 100 µM; in data set [5], above 84 µM. In addition, the “SI MCF-7” value in data set [3] is 0.41.
`Cc1cc(C)n(C(=O)c2c(N)nc3c(c2-c2ccc(Cl)cc2)c(=O)n(C)c(=O)n3C)n1` [Compound 6, 7-Amino-5-(4-chlorophenyl)-6-(3,5-dimethyl-1H-pyrazole-1-carbonyl)-1,3-dimethylpyrido[2,3-d]pyrimidine-2,4(1H,3H)-dione]: it took 38.4 ± 2.6 µM to reach half-maximal inhibition in data set [1] (IC50 at 48 h). Also, in data set [2], the “SI HeLa” value came to 1.54 and the IC50 stood at 24.8 ± 1.6 µM. Further, in data set [3], the “SI MCF-7” value stood at 1.20 and the IC50 is 32 ± 1.9 µM. In data set [4], the “SI HepG-2” value was 1.29 and the half-maximal inhibitory concentration (IC50) came to 29.7 ± 1.8 µM. The IC50 in data set [5] was in the range of 24 to 32 µM.
On to `Cn1c(=O)c2c(-c3ccc(Cl)cc3)c(-c3nnc(S)o3)c(N)nc2n(C)c1=O` [Compound 7, 7-Amino-5-(4-chlorophenyl)-6-(5-mercapto-1,3,4-oxadiazol-2-yl)-1,3-dimethylpyrido[2,3-d]pyrimidine-2,4(1H,3H)-dione], for which the IC50 at 48 h in data set [1] came to 26.8 ± 1.8 µM. Moreover, in data set [2], the “SI HeLa” value was 2.75 and the IC50 was 9.72 ± 0.9 µM. Further, in data set [3], the “SI MCF-7” value came out at 2.30 and the IC50 stood at 11.6 ± 0.9 µM. In data set [4], the “SI HepG-2” value came to 1.52 and the IC50 stood at 17.5 ± 1.3 µM. Also, the IC50 in data set [5] lay in the range of 9.72 to 17.5 µM.
In data set [1], `Cn1c(=O)c2c(-c3ccc(Cl)cc3)c(C3=NN=C(N)C3C#N)c(N)nc2n(C)c1=O` (stereo not drawn) [Compound 8, 3-Amino-5-[7-amino-5-(4-chlorophenyl)-1,3-dimethyl-2,4-dioxo-1,2,3,4-tetrahydropyrido[2,3-d]pyrimidin-6-yl]-4H-pyrazole-4-carbonitrile] displayed an IC50 at 48 h of 25.2 ± 1.8 µM. Moreover, in data set [2], the “SI HeLa” value came out at 0.35 and the IC50 stood at 71.4 ± 3.8 µM. For the same compound, in data set [3], the “SI MCF-7” value was 0.31 and the IC50 amounted to 79.3 ± 3.9 µM. In data set [4], the “SI HepG-2” value worked out at 0.30 and the IC50 came to 82.8 ± 4.1 µM. Further, the IC50 in data set [5] is > 50 µM and 62 to 88 µM.
In data set [1], `Cn1c(=O)c2c(-c3ccc(Cl)cc3)c(-c3nn(CCC#N)c(=S)o3)c(N)nc2n(C)c1=O` [Compound 9, 3-{5-[7-Amino-5-(4-chlorophenyl)-1,3-dimethyl-2,4-dioxo-1,2,3,4-tetrahydropyrido [2,3-d]pyrimidin-6-yl]-2-thioxo-1,3,4-oxadiazol-3(2H)-yl}propanenitrile] showed an IC50 at 48 h above 100 µM. Moreover, the IC50 was 62.7 ± 3.5 µM in data set [2]; 67.8 ± 3.6 µM in data set [3]; 88.6 ± 4.4 µM in data set [4]; > 50 µM and 62 to 88 µM in data set [5]. Besides, the zone of inhibition at 100 µg/mL in data set [6] came to 7.6 mm.
In the case of `Cn1c(=O)c2c(-c3ccc(Cl)cc3)c(-c3nn(CCc4nn[nH]n4)c(=S)o3)c(N)nc2n(C)c1=O` [Compound 10, 6-{4-[2-(2H-Tetrazol-5-yl)ethyl]-5-thioxo-4,5-dihydro-1,3,4-oxadiazol-2-yl}-7-amino-5-(4-chlorophenyl)-1,3-dimethylpyrido[2,3-d]pyrimidine-2,4(1H,3H)-dione], in data set [1], the IC50 at 48 h came out at 37.9 ± 2.4 µM. In addition, in data set [2], the “SI HeLa” value came out at 0.77 and the IC50 came out at 48.7 ± 2.8 µM. Moreover, in data set [3], the “SI MCF-7” value amounted to 0.71 and the IC50 worked out at 53.1 ± 3.1 µM. In addition, in data set [4], the “SI HepG-2” value is listed as 0.54 and the IC50 was found to be 69.4 ± 3.7 µM. Besides, the zone of inhibition at 100 µg/mL in data set [6] came out at 6 mm. Besides, in data set [5], the IC50 was above 50 µM.
Compound `Cn1c(=O)c2c(-c3ccc(Cl)cc3)c(C3=NN=C4N=CNC(=O)C43)c(N)nc2n(C)c1=O` (stereo not drawn) [Compound 11, 7-Amino-5-(4-chlorophenyl)-1,3-dimethyl-6-(4-oxo-3a,5-dihydro-4H-pyrazolo [3,4-d]pyrimidin-3-yl)pyrido[2,3-d]pyrimidine-2,4(1H,3H)-dione] gave a 50% inhibitory concentration (IC50) at 48 h in data set [1] above 100 µM. In addition, the IC50 in data set [2] was 56.4 ± 3.2 µM; in data set [3], 60.6 ± 3.5 µM; in data set [4], 73.2 ± 3.8 µM; in data set [5], above 50 µM. Also, the zone of inhibition at 100 µg/mL turned out to be 2 ± 0.1 mm in data set [7] and 8.6 mm in data set [6].
As for `Cn1c(=O)c2c(-c3ccc(Cl)cc3)c(-c3nnc4sc(S)nn34)c(N)nc2n(C)c1=O` [Compound 15, 7-Amino-5-(4-chlorophenyl)-6-(6-mercapto-[1,2,4]triazolo[3,4-b][1,3,4]thiadiazol-3-yl)-1,3-dimethylpyrido[2,3-d]pyrimidine-2,4(1H,3H)-dione], the IC50 at 48 h in data set [1] was 41.2 ± 2.5 µM. Further, the “SI HeLa” value in data set [2] came to 1.03. Further, the IC50 in data set [2] is 39.8 ± 2.4 µM; in data set [3], 47.5 ± 2.8 µM; in data set [4], 51.8 ± 2.9 µM; in data set [5], 40 to 52 µM. Also, the “SI MCF-7” value in data set [3] is reported as 0.86. Further, the “SI HepG-2” value in data set [4] worked out at 0.79. In addition, the zone of inhibition at 100 µg/mL in data set [7] is 7.5 ± 0.15 mm; in data set [6], 10.3 mm.
`C#Cc1cccc(Nc2ncnc3cc(OCCOC)c(OCCOC)cc23)c1` [Erlotinib, erlotinib, reference compound]: in data set [1], the midpoint of inhibition, the IC50 at 48 h, lay at 78.3 ± 3.9 µM. The IC50 turned out to be 8.04 ± 0.5 µM in data set [2], 7.26 ± 0.3 µM in data set [3] and 9.18 ± 0.6 µM in data set [4].
